Reference: the supplement of paper PMC12463676, “Small-molecule dissolution of stress granules by redox modulation benefits ALS models” (Nature Chemical Biology, 2025)

Key:
potassium arsenate = compound: O=[As]([O-])(O)O.[K+] [potassium arsenate]; assay: thermal stability z-score vs DMSO; higher = more thermally stabilized by treatment; details: HeLa; arsenate concentration 1 mM
Method: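 Cellular thermal proteome profiling in HeLa cells treated with 1 mM arsenate for 1 h (DMSO pretreatment), heated to ten temperatures (37-66.3 °C). Soluble protein was quantified by TMT mass spectrometry relative to DMSO controls; the thermal stability score was transformed to a z-score; mean of n = 3 experiments.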

lipoamide = compound: NC(=O)CCCCC1CCSS1 [lipoamide]; assay: as above; details: HeLa, lipoamide concentration 100 µM
Method: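 Cellular thermal proteome profiling in HeLa cells. Cells were treated with 100 µM lipoamide for 1 h, with or without 1 mM arsenate for a further 1 h, then heated to ten temperatures (37-66.3 °C), and soluble protein was quantified by TMT mass spectrometry relative to 0.1% DMSO controls. The thermal stability score (sum of log2 fold changes minus the abundance score) was transformed to a z-score; mean of n = 3 experiments.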

[1] = arsenate co-treatment: 1 mM arsenate 1 h
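Also: each temperature applied for 3 min, abundance score taken as mean log2 fold change at the two lowest temperatures, z-score obtained by mean subtraction and division by SD.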

Sequence of UniProt Q8N142 (Q8N142 whole entry): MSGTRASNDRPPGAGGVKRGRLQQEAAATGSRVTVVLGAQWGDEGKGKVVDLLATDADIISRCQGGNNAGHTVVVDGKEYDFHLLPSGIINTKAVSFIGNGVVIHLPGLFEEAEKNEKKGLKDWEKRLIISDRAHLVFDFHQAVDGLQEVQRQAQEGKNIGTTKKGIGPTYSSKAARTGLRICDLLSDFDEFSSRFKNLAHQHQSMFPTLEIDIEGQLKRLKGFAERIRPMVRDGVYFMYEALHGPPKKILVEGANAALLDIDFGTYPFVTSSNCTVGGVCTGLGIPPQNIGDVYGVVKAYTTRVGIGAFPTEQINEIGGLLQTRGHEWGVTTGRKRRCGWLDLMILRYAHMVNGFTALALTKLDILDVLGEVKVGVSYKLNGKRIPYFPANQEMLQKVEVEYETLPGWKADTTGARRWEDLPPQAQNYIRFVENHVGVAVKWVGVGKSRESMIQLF
Sequence of UniProt Q8WU76 (Q8WU76 whole entry): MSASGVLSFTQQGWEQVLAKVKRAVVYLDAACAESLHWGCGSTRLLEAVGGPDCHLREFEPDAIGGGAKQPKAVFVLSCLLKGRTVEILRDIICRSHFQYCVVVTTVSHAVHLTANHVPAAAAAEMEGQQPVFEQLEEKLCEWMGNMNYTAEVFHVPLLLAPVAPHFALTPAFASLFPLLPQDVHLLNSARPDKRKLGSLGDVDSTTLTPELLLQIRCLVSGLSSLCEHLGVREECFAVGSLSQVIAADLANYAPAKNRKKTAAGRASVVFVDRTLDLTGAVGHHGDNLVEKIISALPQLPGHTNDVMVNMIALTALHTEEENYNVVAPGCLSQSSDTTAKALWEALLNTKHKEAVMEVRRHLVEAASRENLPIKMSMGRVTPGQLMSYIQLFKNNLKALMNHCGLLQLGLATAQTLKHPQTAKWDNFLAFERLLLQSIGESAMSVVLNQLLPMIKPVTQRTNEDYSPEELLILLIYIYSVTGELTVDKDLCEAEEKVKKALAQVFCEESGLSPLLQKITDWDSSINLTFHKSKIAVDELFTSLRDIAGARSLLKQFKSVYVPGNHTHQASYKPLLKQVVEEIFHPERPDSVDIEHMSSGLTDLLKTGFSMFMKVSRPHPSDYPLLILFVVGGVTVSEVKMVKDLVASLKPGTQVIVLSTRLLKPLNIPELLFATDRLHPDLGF
Sequence of UniProt Q9NYA1 (Q9NYA1 whole entry): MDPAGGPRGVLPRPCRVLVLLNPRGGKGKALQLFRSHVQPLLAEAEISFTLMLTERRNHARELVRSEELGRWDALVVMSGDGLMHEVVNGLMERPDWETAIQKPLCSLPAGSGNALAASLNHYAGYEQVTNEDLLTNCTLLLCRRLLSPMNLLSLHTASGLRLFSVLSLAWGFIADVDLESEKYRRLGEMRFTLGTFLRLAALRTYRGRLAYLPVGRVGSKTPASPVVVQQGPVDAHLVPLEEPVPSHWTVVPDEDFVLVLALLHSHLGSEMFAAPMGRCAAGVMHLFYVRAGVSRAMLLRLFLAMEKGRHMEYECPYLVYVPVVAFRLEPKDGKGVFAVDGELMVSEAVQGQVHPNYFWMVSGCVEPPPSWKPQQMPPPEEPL
Sequence of UniProt P21926 (P21926 whole entry): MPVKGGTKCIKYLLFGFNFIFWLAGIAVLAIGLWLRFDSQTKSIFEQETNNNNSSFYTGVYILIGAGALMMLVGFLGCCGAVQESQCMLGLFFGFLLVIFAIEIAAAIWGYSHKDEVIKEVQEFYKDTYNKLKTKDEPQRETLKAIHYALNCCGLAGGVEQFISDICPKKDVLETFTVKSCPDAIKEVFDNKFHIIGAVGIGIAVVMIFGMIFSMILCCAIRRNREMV
Sequence of UniProt Q8N4T8 (Q8N4T8 whole entry): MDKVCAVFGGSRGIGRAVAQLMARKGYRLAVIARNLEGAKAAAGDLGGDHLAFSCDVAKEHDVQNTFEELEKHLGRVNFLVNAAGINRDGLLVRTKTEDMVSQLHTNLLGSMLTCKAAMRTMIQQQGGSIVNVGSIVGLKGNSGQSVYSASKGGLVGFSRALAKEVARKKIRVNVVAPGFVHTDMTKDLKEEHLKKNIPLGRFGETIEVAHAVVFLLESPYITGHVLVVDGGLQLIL
Sequence of UniProt P28340 (P28340 whole entry): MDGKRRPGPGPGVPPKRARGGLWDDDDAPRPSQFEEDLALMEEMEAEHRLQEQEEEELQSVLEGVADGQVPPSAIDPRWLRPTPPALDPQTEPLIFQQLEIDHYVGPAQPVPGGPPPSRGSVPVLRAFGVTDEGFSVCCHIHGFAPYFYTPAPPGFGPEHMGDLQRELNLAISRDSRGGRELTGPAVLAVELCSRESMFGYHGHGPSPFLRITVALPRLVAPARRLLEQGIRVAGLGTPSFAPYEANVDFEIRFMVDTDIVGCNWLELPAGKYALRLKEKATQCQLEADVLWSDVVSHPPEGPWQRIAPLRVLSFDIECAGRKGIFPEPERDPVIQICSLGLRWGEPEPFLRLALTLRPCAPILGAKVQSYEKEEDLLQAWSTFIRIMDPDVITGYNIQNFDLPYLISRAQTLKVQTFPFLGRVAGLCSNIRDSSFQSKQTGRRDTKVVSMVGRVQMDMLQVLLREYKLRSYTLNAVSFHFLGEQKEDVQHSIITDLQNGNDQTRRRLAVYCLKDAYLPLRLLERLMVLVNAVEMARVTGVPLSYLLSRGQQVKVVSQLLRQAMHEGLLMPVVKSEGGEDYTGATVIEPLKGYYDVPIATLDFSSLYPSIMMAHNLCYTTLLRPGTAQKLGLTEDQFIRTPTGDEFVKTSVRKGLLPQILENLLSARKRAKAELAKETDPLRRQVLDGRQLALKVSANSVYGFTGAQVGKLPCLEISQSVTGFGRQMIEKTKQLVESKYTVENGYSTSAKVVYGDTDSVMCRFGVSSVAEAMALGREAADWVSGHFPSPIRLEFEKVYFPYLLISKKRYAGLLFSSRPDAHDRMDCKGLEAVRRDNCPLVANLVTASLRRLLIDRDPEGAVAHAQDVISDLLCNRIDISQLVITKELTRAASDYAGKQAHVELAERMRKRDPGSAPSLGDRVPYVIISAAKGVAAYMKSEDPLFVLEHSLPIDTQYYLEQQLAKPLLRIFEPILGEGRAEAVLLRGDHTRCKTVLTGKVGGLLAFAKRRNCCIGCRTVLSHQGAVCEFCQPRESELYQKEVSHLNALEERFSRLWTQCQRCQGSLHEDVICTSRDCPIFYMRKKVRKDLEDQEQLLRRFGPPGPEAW
Sequence of UniProt O43707 (O43707 whole entry): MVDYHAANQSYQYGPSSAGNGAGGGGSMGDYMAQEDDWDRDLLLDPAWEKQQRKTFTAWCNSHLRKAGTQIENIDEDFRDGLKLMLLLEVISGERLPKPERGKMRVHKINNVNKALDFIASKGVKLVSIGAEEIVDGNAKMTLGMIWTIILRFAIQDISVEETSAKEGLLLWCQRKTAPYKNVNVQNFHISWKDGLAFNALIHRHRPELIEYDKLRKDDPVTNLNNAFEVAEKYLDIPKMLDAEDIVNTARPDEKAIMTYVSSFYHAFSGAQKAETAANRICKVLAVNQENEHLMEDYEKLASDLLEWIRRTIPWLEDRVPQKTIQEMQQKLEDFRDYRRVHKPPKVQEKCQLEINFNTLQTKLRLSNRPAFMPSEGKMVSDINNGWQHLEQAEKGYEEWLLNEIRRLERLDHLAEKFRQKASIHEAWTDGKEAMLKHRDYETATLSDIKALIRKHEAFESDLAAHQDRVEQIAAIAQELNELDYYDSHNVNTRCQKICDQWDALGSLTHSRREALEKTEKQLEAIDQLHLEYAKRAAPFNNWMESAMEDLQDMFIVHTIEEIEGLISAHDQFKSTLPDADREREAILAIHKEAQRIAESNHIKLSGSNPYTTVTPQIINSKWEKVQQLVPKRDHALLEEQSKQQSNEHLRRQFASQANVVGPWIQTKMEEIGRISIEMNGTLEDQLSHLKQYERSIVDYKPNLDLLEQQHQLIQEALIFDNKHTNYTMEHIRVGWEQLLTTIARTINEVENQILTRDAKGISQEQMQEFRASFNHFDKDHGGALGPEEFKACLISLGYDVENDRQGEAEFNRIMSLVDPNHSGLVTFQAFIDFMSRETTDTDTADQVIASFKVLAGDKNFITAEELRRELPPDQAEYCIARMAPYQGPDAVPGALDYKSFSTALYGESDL
Sequence of UniProt O15066 (O15066 whole entry): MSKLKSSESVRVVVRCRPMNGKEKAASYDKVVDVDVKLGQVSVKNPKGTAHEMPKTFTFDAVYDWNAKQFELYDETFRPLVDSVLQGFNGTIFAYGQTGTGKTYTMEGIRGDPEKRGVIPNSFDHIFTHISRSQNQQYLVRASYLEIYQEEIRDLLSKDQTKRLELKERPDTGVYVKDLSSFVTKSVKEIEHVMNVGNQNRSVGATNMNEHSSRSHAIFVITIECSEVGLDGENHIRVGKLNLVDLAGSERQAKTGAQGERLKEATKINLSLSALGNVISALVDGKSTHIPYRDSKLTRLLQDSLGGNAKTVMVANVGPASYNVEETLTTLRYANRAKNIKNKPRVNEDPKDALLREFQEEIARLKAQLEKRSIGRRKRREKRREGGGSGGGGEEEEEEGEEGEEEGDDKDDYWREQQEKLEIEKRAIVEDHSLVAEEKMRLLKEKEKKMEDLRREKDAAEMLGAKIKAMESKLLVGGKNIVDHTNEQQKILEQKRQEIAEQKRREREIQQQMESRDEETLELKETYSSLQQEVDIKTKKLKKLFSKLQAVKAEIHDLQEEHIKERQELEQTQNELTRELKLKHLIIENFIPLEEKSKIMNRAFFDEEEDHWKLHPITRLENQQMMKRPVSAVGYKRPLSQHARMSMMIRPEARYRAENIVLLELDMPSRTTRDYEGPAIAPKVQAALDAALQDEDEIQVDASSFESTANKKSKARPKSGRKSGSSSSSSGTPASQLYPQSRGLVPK
Sequence of UniProt P24534 (P24534 whole entry): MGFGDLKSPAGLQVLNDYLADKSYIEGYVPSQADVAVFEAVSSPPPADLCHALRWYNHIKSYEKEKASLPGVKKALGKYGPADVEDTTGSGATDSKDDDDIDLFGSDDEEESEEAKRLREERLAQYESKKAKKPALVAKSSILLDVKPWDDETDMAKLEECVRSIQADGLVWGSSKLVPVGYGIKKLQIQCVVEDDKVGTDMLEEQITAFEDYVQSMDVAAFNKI

Target	thermal stability z-score (potassium arsenate)	thermal stability z-score (lipoamide; [1])	thermal stability z-score (lipoamide; arsenate co-treatment: none)
SPHK1 (UniProt Q9NYA1)	-0.0222	0.328	0.0728
FCHSD2 (UniProt O94868)	-0.184	-0.0527	-0.175
CENPF (UniProt P49454)	1.73	0.439	-0.0287
EEF1B2 (UniProt P24534)	0.849	0.748	0.472
RPS6KC1 (UniProt Q96S38)	-0.393	-0.161	-0.151
ABCG2 (UniProt Q9UNQ0)	1.12	0.0159	-0.208
KIF3B (UniProt O15066)	-0.47	0.285	-0.318
ADSSL1 (UniProt Q8N142)	0.237	0.111	0.223
NSUN6 (UniProt Q8TEA1)	-0.526	-0.141	-0.366
COMMD3 (UniProt Q9UBI1)	-1.12	-0.911	-0.0897
SEC11C (UniProt Q9BY50)	0.222	-0.973	-0.842
POLD1 (UniProt P28340)	-0.1	0.0404	-0.203
ITPRIPL2 (UniProt Q3MIP1)	-0.0231	-0.176	-0.34
CD9 (UniProt P21926)	0.251	1.93	1.62
IGF2BP2 (UniProt Q9Y6M1)	-0.165	-0.00758	0.044
EP300 (UniProt Q09472)	-0.866	-0.212	0.127
FAM98B (UniProt Q52LJ0)	-1.01	0.052	-0.438
CBR4 (UniProt Q8N4T8)	0.168	-0.276	0.0911

Target	thermal stability z-score (potassium arsenate)	thermal stability z-score (lipoamide; [1])	thermal stability z-score (lipoamide; arsenate co-treatment: none)
ACTN4 (UniProt O43707)	0.498	0.262	0.364
M6PR (UniProt P20645)	0.167	0.401	-0.0131
KLC4 (UniProt Q9NSK0)	0.297	-1.48	0.259
CDK16 (UniProt Q00536)	0.0532	0.0459	-0.3
ICAM1 (UniProt P05362)	-0.49	0.33	-0.273
LGALS1 (UniProt P09382)	-0.756	0.596	0.255
MGST3 (UniProt O14880)	2.22	0.65	0.431
NAP1L1 (UniProt P55209)	-0.164	-0.552	-0.224
LIN54 (UniProt Q6MZP7)	0.0147	0.0767	-0.0219
MRPL39 (UniProt Q9NYK5)	0.057	-0.499	-0.225
BROX (UniProt Q5VW32)	-0.0457	1.03	1.02
MARS2 (UniProt Q96GW9)	0.992	0.482	0.957
RPL17 (UniProt P18621)	-0.755	0.743	0.704
SLC25A29 (UniProt Q8N8R3)	-0.111	0.136	-0.0401
SCFD2 (UniProt Q8WU76)	0.043	0.0156	-0.09
SYDE1 (UniProt Q6ZW31)	-0.278	-0.177	-0.208
SNX16 (UniProt P57768)	-0.741	1.01	-0.515
